# Experiments:
# [1] = Pharmacokinetic study, 100 mg resveratrol, oral transmucosal resveratrol/solubilizer formulation (test) versus controls; type: in vivo, human; settings: for Cav: plasma
# Protocol: Any adverse effects are recorded. […] These adjustments are made using the formulas […])).
# [2] = Resveratrol solubility in ribose, U.V. HPLC and mass spectrometry peak areas (Table 1); type: physicochemical
# Protocol: The peak areas of the LC traces using U.V. and MS spectral detection were determined. […]
# [3] = trans/cis isomerisation of resveratrol in water or 3 M ribose, with or without 30 minutes U.V. light (Table 3, FIGS. 1-4); type: physicochemical; settings: for cis isomer peak area, Mass spectroscopy / cis isomer peak area, PDA (trans-316 nm, cis-284 nm) / cis isomer peak area, Tandem mass spectroscopy / trans isomer peak area, Mass spectroscopy / trans isomer peak area, PDA (trans-316 nm, cis-284 nm) / trans isomer peak area, Tandem mass spectroscopy: UV exposed 30 minutes
# Excerpt: PDA-284 nm panel: NL: 4.31E5; nm=283.5-284.5; PDA Avalon. MS Panel: NL: 3.90E6; m/z=226.60-227.60; F: -c APCI corona; sid=10.00; Full ms [100.00-1000.00] MS ICIS. Tandem MS panel: NL: 7.71E5; m/z=184.50-185.50; F: -c APCI corona; sid=10.00 Full ms2 227.00@cid45.00 [60.00-250.00] MS ICIS.
# [4] = Dissolution of resveratrol in sugar or sugar alcohol solutions (observation); type: physicochemical
# Protocol: A ribose/water solution (18 g/2 g) was heated.
# In another experiment, various sucrose/water mixtures were heated to boiling point. Reservatrol was added to each sucrose/water solution. […] On cooling, resveratrol/sucrose/water mixtures formed crystalline solids composed of small crystals; in contrast, the sucrose/water solution formed a crystalline solid composed of large crystals.
# In another experiment, water was added to the solid resveratrol/sucrose/water mixtures.
# An aqueous solution of dextrose was prepared and heated to boiling. The resveratrol was added to the warm syrup and allowed to cool further. While still liquid, the syrup retained a capsinoid flavor. On cooling further, a white powdery mixture of crystals was formed. No capsinoid-like flavor was detected when the solid mixture was tasted.
# Resveratrol was added to warm solutions of xylitol or erythritol. […] On cooling the xylitol or erythritol solution formed a crystalline solid that appeared to exclude the resveratrol. No capsaicirioid-like flavor was detected when each reservatrol/xylitol and reservatrol/erythritol solid mixture was tasted.
# Water was added to the each reservatrol/xylitol and reservatrol/erythritol mixture.
# [5] = Solubility of resveratrol in 3M ribose, U.V. HPLC and MS peak areas (Table 2); type: physicochemical
# Excerpt: Table 2 and 3 summarize the results.
# [6] = 0.4 mg/ml standard in MeOH/water
# [7] = 1.3 mg resveratrol in 1 ml 1M ribose
# [8] = 1.3 mg resveratrol in 1 ml water
# [9] = 1.6 mg resveratrol in 1 ml 3M ribose
# [10] = 1.6 mg resveratrol in 1 ml water
smiles,measurement,setting,value
"O=S(=O)(O)Oc1cc(O)cc(/C=C/c2ccc(O)cc2)c1 [3-sulfate, trans-resveratrol-3-O-sulfate]",Cav,[1]; Control(s): 100 mg resveratrol,34 ng/mL
same,Cav,"[1]; Test: 100 mg resveratrol, oral transmucosal resveratrol/solubilizer formulation",23 ng/mL
"Oc1ccc(/C=C/c2cc(O)cc(O)c2)cc1 [Resveratrol, 3,5,4′-trihydroxy-trans-stilbene]",Resveratrol MS peak area,[2]; [6],361620189
same,Resveratrol MS/MS peak area,[2]; [6],22825783
same,Resveratrol UV peak area,[2]; [6],32589198
same,Resveratrol MS peak area,[2]; [7],34006422
same,Resveratrol MS/MS peak area,[2]; [7],2177343
same,Resveratrol UV peak area,[2]; [7],6879044
same,Resveratrol MS peak area,[2]; [8],17991728
same,Resveratrol MS/MS peak area,[2]; [8],1055482
same,Resveratrol UV peak area,[2]; [8],3757436
same,Resveratrol MS peak area,[2]; 1:1 dilution of ribose sample,59987321
same,Resveratrol MS/MS peak area,[2]; 1:1 dilution of ribose sample,4277049
same,Resveratrol UV peak area,[2]; 1:1 dilution of ribose sample,10156011
same,Resveratrol MS peak area,[2]; 1:1 dilution of water sample,36350491
same,Resveratrol MS/MS peak area,[2]; 1:1 dilution of water sample,2235878
same,Resveratrol UV peak area,[2]; 1:1 dilution of water sample,7414378
same,percentage increase in the peak area with ribose,[2]; ribose (undiluted) sample versus water sample,83.1%
same,"cis isomer peak area, Mass spectroscopy",[3]; 3M ribose,67794774
same,"cis isomer peak area, PDA (trans-316 nm, cis-284 nm)",[3]; 3M ribose,3348277
same,"cis isomer peak area, Tandem mass spectroscopy",[3]; 3M ribose,12957854
same,"trans isomer peak area, Mass spectroscopy",[3]; 3M ribose,30056046
same,"trans isomer peak area, PDA (trans-316 nm, cis-284 nm)",[3]; 3M ribose,9667985
same,"trans isomer peak area, Tandem mass spectroscopy",[3]; 3M ribose,4678183
same,"isomers detected, PDA-316 nm panel","[3]; FIG. 1, 1.6 mg resveratrol in 1 ml water, no U.V. exposure",cis isomer is not detected
same,"isomers detected, PDA-316 nm panel","[3]; FIG. 2, 1.6 mg resveratrol in 1 ml 3 M ribose, no U.V. exposure",cis isomer is not detected
same,"isomers detected, PDA-316 nm panel","[3]; FIG. 3, 1.6 mg resveratrol in 1 ml water exposed to U.V. light for 30 minutes",trans isomer and cis isomer peaks detected
same,"isomers detected, PDA-316 nm panel","[3]; FIG. 4, 1.6 mg resveratrol in 1 ml 3 M ribose exposed to U.V. light for 30 minutes",trans isomer and cis isomer peaks detected
same,"cis isomer peak area, Mass spectroscopy",[3]; Water,42202693
same,"cis isomer peak area, PDA (trans-316 nm, cis-284 nm)",[3]; Water,2260306
same,"cis isomer peak area, Tandem mass spectroscopy",[3]; Water,8357052
same,"trans isomer peak area, Mass spectroscopy",[3]; Water,7702267
same,"trans isomer peak area, PDA (trans-316 nm, cis-284 nm)",[3]; Water,3293034
same,"trans isomer peak area, Tandem mass spectroscopy",[3]; Water,1489337
same,solubility,"[4]; aqueous dextrose solution, heated to boiling and cooled",not well soluble
same,solubility,[4]; in ribose and in fructose/dextrose,soluble
same,solubility in the presence of ribose,"[4]; ribose/water solution (18 g/2 g), 100 mg resveratrol to 1000 mg solution, inferred from sensation in the mouth",increased
same,dissolution,[4]; sucrose/water solution (1:1 v/v),failed to dissolve
same,dissolution,"[4]; various sucrose/water mixtures heated to about 90° C., then cooled",failed to dissolve
same,dissolution,[4]; warm solutions of xylitol or erythritol,observed not to dissolve
same,behaviour on adding water,[4]; water added to reservatrol/xylitol and reservatrol/erythritol mixtures,precipitated out of solution
same,behaviour on adding water,[4]; water added to the solid resveratrol/sucrose/water mixtures,precipitated out of solution
same,"peak area, Mass spectroscopy",[5]; [9],69226333
same,"peak area, PDA (trans-316 nm, cis-284 nm)",[5]; [9],17477801
same,"peak area, Tandem mass spectroscopy",[5]; [9],11603388
same,"peak area, Mass spectroscopy",[5]; [10],35925663
same,"peak area, PDA (trans-316 nm, cis-284 nm)",[5]; [10],10448839
same,"peak area, Tandem mass spectroscopy",[5]; [10],6058729
same,"% increase of peak area, Mass spectroscopy",[5]; 3M ribose versus water,92.7%
same,"% increase of peak area, PDA (trans-316 nm, cis-284 nm)",[5]; 3M ribose versus water,67.3%
same,"% increase of peak area, Tandem mass spectroscopy",[5]; 3M ribose versus water,91.5%
same,"Serum Cmax levels of resveratrol, test versus control subjects",[1]; 100 mg resveratrol,higher in test subjects
same,"peak plasma level and bioavailability, test versus controls",[1]; resveratrol/solubilizer formulation by oral transmucosal route versus oral transmucosal resveratrol/sucrose or oral resveratrol/solubilizer,greater peak plasma level and bioavailability
